Source: patent US7517902B2, “Substituted indazoles, compositions containing the same, and the preparation and use thereof” (Aventis Pharma S.A., priority 2004, dated 2009)
Counter-ions that a name gives are not always drawn.

Experiments:
[1] = biological target: T1, CDK4/cyclin D1 kinase complex (Homo sapiens, UniProt P11802); assay: CDK4/cyclinD1 Flashplate assay in 96-well format; type: biochemical; conditions: read-out: IC 50 CDK4
T1 construct: HA (Hemagglutinin tag) (C); made in house; host or cells: Sf9 insect cells (baculovirus co-infection)
T1 sequence (P11802 whole entry): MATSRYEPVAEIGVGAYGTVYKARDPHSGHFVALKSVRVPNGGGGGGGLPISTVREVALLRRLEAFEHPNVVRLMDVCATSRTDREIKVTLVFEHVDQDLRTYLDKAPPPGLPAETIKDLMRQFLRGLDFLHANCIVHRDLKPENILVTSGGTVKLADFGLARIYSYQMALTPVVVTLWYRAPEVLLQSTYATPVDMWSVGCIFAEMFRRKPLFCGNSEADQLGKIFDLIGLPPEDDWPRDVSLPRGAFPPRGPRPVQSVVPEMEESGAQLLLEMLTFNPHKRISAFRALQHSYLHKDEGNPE
T1 sequence (P24385 whole entry partner): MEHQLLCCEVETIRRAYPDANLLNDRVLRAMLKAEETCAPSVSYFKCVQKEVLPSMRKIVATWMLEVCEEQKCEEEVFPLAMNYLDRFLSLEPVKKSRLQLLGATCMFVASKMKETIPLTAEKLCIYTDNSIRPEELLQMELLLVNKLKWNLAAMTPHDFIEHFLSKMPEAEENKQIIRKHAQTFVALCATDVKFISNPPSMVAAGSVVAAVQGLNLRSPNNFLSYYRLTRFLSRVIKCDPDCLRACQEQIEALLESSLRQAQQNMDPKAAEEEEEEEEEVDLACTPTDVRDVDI
Protocol: Purification of the CDK4-HA/cyclin D1-(His)6 complex by IMAC (Immobilized Metal Affinity Chromatography):
Two recombinant baculoviruses carrying the human sequences coding respectively for CDK4-HA (C-terminal fusion with the Hemagglutinin tag) and for cyclin D1-(His)6 are used to co-infect Sf9 insect cells. Sixty hours after the beginning of co-infection, the cells are harvested by centrifugation and then frozen at −20° C. until their use. After thawing in buffer A (HEPES 200 mM pH 7.0, NaCl 50 mM, MgCl2 2 mM, imidazole 25 mM, TCEP 1 mM, glycerol 10% (w/v), NaF 1 mM, Na3VO4 1 mM), stirring at 4° C. for 1 h, and centrifugation, the complex present in the lysis supernatant is purified by affinity chromatography on nickel (IMAC) and stored at −80° C.
CDK4/cyclinD1 Flashplate Assay in 96-Well Format.
An assay in 96-well “Flashplate” (scintillation plate) plates coated with streptavidin is used to evaluate the inhibition of the CDK4/cyclin D1 kinase complex by the products of the invention. To perform this test, the biotinylated peptide substrate, a fragment of the pRb protein, (biotinyl-[…]-amide), is dissolved at a concentration of 2 mM in kinase buffer (HEPES/NaOH 50 mM, NaCl 1 mM, MgCl2 5 mM, pH=7.5) to form a stock solution, which is stored at −20° C. in the form of 110 μl aliquots. On the day of the experiment, an aliquot of this solution is thawed and diluted in kinase buffer containing 1 mM of dithiothreitol, added at the time of use, so as to give a final peptide concentration of 2.571 μM. seventy μl of this solution are deposited in each well of the Flashplate plate, to give a final substrate concentration of 1.8 μM during the enzymatic reaction, which is performed in a final volume of 100 μl (cf. below). Intermediate dilutions of inhibitors (products of the invention) at various concentrations are prepared in DMSO from 10 mM stock solutions in separate tubes. In this way dilutions at 1000 μM, 333.3 μM, 111.1 μM, 37.03 μM, 12.35 μM, 4.11 μM and 1.37 μM are produced. One μl of each of these solutions (or 1 μl of DMSO for the controls) is subsequently transferred into the wells of the assay plate. To each well there is subsequently added 19 μl of a solution of a mixture of adenosine triphosphate (ATP) and ATPγ^33P in the kinase buffer at a concentration of 5.26 μM of total ATP and 78.9 μCi/ml of ^33P. The enzymatic reaction is triggered by adding 10 μl per well of a solution of CDK4/cyclin D1 complex at 250 nM in the kinase buffer, containing 1 mM of dithiothreitol (or 10 μl of kinase buffer containing 1 mM of dithiothreitol for the reaction blanks). At the end of the various additions, the final volume in each well is 100 μl, the final substrate concentration is 1.8 μM, the final inhibitor concentrations are 10 μM, 3.33 μM, 1.11 μM, 0.37 μM, 0.123 μM, 0.041 μM and 0.014 μM (depending on the concentration of the intermediate dilution), the final ATP concentration is 1 μM, the final amount of ^33P is 1.5 μCi/well, and the final concentration of CDK4/cyclin D1 complex is 25 nM.
After all of the reagents have been added, the assay plate is incubated at 30° C. with orbital stirring at 650 rpm. Following incubation, the plate is washed three times with 300 μl per well of PBS buffer (phosphate buffered saline, pH=7.4 with neither calcium nor magnesium, reference 10010-015, Gibco BRL). The incorporation of ^33P into the substrate peptide is measured by scintillation counting using a Packard Topcount.NXT instrument. The inhibitory activity of the products of the invention is evaluated by determining the concentration of inhibitor resulting in a 50% reduction in the enzymatic activity (IC50).

## Nc1n[nH]c2cc(-c3ccc(NS(=O)(=O)c4cccc(Cl)c4Cl)cc3)ccc12 [Example 2, 1-[4-(3-Amino-1H-indazol-6-yl)phenyl]-2,3-dichlorobenzenesulfonamide hydrochloride]
[1]
  IC50: 132 nM

## O=C(Nc1n[nH]c2cc(-c3ccc(NS(=O)(=O)c4cccc(Cl)c4Cl)cc3)ccc12)c1ccsc1 [Example 3, 3-Thiophenecarboxylic acid {6-[4-(2,3dichlorobenzenesulfonylamino)phenyl]-1H-indazol-3-yl}amide]
other
  melting point: 196 °C
[1]
  IC50: 145 nM

## O=C(Nc1n[nH]c2c(F)c(-c3ccc(NS(=O)(=O)c4cccc(Cl)c4Cl)cc3)ccc12)c1ccsc1 [Example 5, 3-Thiophenecarboxylic acid {6-[4-(2,3-dichlorobenzenesulfonylamino)-7-fluorophenyl]-1H-indazol-3-yl}amide]
[1]
  IC50: 55 nM

## Nc1n[nH]c2c(F)c(-c3ccc(NS(=O)(=O)c4cccc(Cl)c4Cl)cc3)ccc12 [Example 8, 1-[4-(3-Amino-1H-indazol-6-yl)-7-fluorophenyl]-2,3-dichlorobenzenesulfonamide hydrochloride]
[1]
  IC50: 117 nM
